Consider one molecule from patent publication US9980967B1, “Method for overcoming drug resistance of EGFR mutation and cancerous stemness of human non-small cell lung carcinoma” (NATIONAL CHIAO TUNG UNIVERSITY, priority 2017, dated 2018).

Series [1] concerns H1975 xenograft tumors. Nature of the series: Xenografted human NSCLC (H1975) tumors in nude mice. Format: in vivo. Conditions: 30 mg/kg once per four days, during the treatment period. The text has this: The results were obtained from twelve mice and the bar represents the mean±S.E.M.**p<0.01, indicating significant difference between control and SP101 treatment group mice. ###p<0.001 indicates significant differences between SP101 and Gefitinib-treated mice.
The tumor weight was means±*p<0.05 indicating significant differences between control and SP101 treatment group mice. #p<0.05 indicates significant differences between SP101 and Gefitinib-treated mice.
NSCLC tumors in nude mice were established. Seven-week-old nude mice were subcutaneously injected with 3×10^6 H1975 cells. Please refer to FIGS. 7 and 8. After 7 to 10 days inoculation, the nude mice were treated with vehicle or 30 mg/kg SP101 or 30 mg/kg Gefitinib once per four days and tumor sizes in the nude mice were measured every four days. The nude mice were sacrificed after treatment for 16 days; the tumors were harvested to measure tumor volume/weight and further analyze tumor tissues. […] Please refer to FIG. 9.

Series [2] concerns A549-ON cells. Nature of the series: Annexin V/PI apoptosis flow cytometry in A549-ON cells. Conditions: 30 μM, early and late apoptosis, flow cytometry. The format is cell-based, human. The method, then: At the end of treatment, apoptosis was measured by Annexin V-PI staining using flow cytometry analysis. The population of Annexin V+/PI− cells represents cells undergoing early apoptosis (low right), whereas the fraction of Annexin V+/PI+ cell are those undergoing late apoptosis (upper right). The representative flow data were shown from one of three separate experiments with similar findings.
The bar represents the mean±S.E.M. ***p<0.001 indicates significant difference between untreated and SP101 or Gefitinib treated samples.
We compared the apoptosis levels of SP101 and Gefitinib in cancer stem-like A549-ON cells by Annexin V and PI staining. Please refer to FIG. 19. […] Please refer to FIG. 20. The average of total apoptosis follows SP101 and Gefitinib in the A549-ON cells around 69.29% and 7.59%, respectively.

With `COc1cc2ncnc(Nc3ccc(F)c(Cl)c3)c2cc1OCCCN1CCOCC1` [Gefitinib, reference compound], in series [1], the “body weight of the nude mice” value was “did not alter”. Moreover, the “average of total apoptosis” value in series [2] is reported as roughly 7.59%.
